Assay results from patent US20220387403A1, “COMPOUNDS, COMPOSITIONS AND METHODS FOR TREATING NASH, NAFLD, AND OBESITY” (CVI Pharmaceuticals Limited, priority 2019, published 2022).
“Also recorded” adds a separate entry of the source.

What was measured:
LDLR mRNA [1] = assay: LDLR mRNA expression in HepG2 cells, semi-quantitative RT-PCR; format: cell-based, human; conditions: 8 hours, FIG. 3
Description: HepG2 cells obtained from American Tissue Culture Collection (Manassas, Va., USA) were seeded in 6-well culture plates at a density of 0.8×10^6 cells/well cultured in EMEM containing 0.5% FBS and were treated with each purified compound at indicated doses for 8 hours. Total RNA was isolated, and 2 μg per sample was reverse transcribed with random primers using M-MLV (Promega) at 37° C. for 1 hour. PCR was carried out at 94° C. for 30 sec, 60° C. for 30 sec, and 72° C. for 30 sec with initial activation of the enzyme at 94° C. for 1 minute. Thirty cycles were performed for LDLR and GAPDH. PCR was performed using primers HLDLR-up and HLDLR-lo for LDLR and primers HGAPDH-up and HGAPDH-lo for GAPDH. The PCR products were separated on a 1% agarose gel and the band intensity was quantitated. LDLR mRNA levels were corrected by measuring GAPDH mRNA levels.
Specific stereochemical requirements of +/−THP in the upregulation of LDLR mRNA expression were determined by a similar experiment. HepG2 cells were treated with the pure 14R-(+)-THP or the pure 14S-(−)-THP at the indicated concentrations for 24 hours. The levels of LDLR mRNA and GAPDH mRNA in untreated and the compound-treated HepG2 cells were assessed by semi-quantitative RT-PCR.

PCSK9 mRNA = PCSK9 mRNA expression in HepG2 cells, quantitative real-time RT-PCR; format: cell-based, human; conditions: 24 hours; for Activity on PCSK9 mRNA reduction at 10 uM (fold of control) / Activity on PCSK9 mRNA reduction at 40 uM (fold of control): mean ± s.d.
Description: The time-dependent effects of compounds of Formula I, II, III, and IV on the upregulation of LDLR mRNA and the inhibition of PCSK9 mRNA expression were examined (Horton J D, Cohen J C, Hobbs H H. “Molecular biology of PCSK9: its role in LDL metabolism” TRENDS in Biochemical Sciences 2007; 32:71-77). HepG2 cells were treated with new compounds individually at 20 uM dose for 1 day, 2 day, and 3 days. Total RNA was isolated and 2 μg was used to generate cDNA in a reaction containing random primers and M-MLV at 37° C. for 1 hour in a volume of 25 μl. Real-time PCR was performed on the cDNA using MCEP REALPLEX 2 SYSTEM (Eppendorf) and Universal MasterMix (Applied Biosystems). Human LDLR, PCSK9, and GAPDH Pre-Developed TaqMan Assay Reagents (Applied Biosystems) were used to assess the levels of mRNA expressions in HepG2. The levels of LDLR mRNA or PCSK9 mRNA were normalized to that of GAPDH. Each RNA samples was assayed in triplicate. The abundance of LDLR mRNA or PCSK9 mRNA in untreated cells was defined as 1, and the amounts of LDLR mRNA or PCSK9 from compound-treated cells were plotted relative to that value (FIG. 10). The data shown are mean±s.d.
Total RNA was harvested for quantitative real-time RT-PCR analysis using method described in Examples 16B. The fold activity was derived by dividing the amount of normalized LDLR or PCSK9 mRNA in compound-treated cells over the amount of LDLR or PCSK9 mRNA in untreated control cells.
(§1) The effects of 23 compounds on the mRNA expressions of LDLR and PCSK9 were examined using quantitative real-time RT-PCR assays. HepG2 cells were treated with various compounds at 10 and 40 uM concentrations for 24 hours. Total RNA was isolated and 2 μg was used to generate cDNA in a reaction containing random primers and M-MLV at 37° C. for 1 h in a volume of 25 μl. Real-time PCR was performed on the cDNA using MCEP REALPLEX 2 SYSTEM (Eppendorf) and Universal MasterMix (Applied Biosystems). Human LDLR, PCSK9, and GAPDH Pre-Developed TaqMan Assay Reagents (Applied Biosystems) were used to assess the levels of mRNA expressions in HepG2. The levels of LDLR and PCSK9 mRNA were normalized to that of GAPDH. Each RNA samples was assayed in duplicate. The fold activity was calculated by dividing mRNA abundance in compound treated cells with that of control.

LDLR mRNA [2] = assay: LDLR mRNA expression in HepG2 cells, quantitative real-time RT-PCR; format: cell-based, human; conditions: 24 hours; for Activity on LDLR mRNA at 10 uM (fold of control) / Activity on LDLR mRNA at 40 uM (fold of control): mean ± s.d.
Description: Activities of some compounds of Formulas I, II, III, and IV on LDLR mRNA expression were determined. HepG2 cells were treated with new compounds individually at a dose less than or equal to 10 μM for 24 hours. Total RNA was harvested for quantitative real-time RT-PCR analysis using the method described in Example 16B. […] In these experiments, berberine chloride was included for comparison. […]
Total RNA was harvested for quantitative real-time RT-PCR analysis using method described in Examples 16B.
as §1

NAFLD hamster model = assay: High fat and high cholesterol diet induced NAFLD hamster model; format: in vivo; conditions: 4 weeks
Description: In a high fat and high cholesterol diet (HFHCD) induced non-alcoholic fat liver disease (NAFLD) hamster model, hamsters were fed a HFHCD for two weeks then treated for 4 weeks with C128 at 10 mg/kg, 20 mg/kg and 40 mg/kg, along with fenofibrate at 50 mg/kg as a positive control. Serum lipids and liver enzymes were measured using standard techniques. Liver tissue histopathology with Oil-red O staining and H&E staining were also performed.
In a high fat and high cholesterol diet (HFHCD) induced NAFLD hamster model, hamsters were fed a HFHCD for two weeks then treated for 4 weeks with C127 at 80 mg/kg or with fenofibrate 50 mg/kg.

obese Cynomolgus monkeys = assay: Obese Cynomolgus monkeys fed a high fat diet (DEXA scan, serum parameters); format: in vivo; conditions: 40 mg/kg/day PO three weeks, then 80 mg/kg/day weeks 4-6
Excerpt: Twelve obese Cynomolgus monkeys were fed a high fat diet containing 0.5% cholesterol for 6 weeks before the treatment phase. Before the treatment with compound 127 (C127) or vehicle, all animals received a assessment of whole body and fat composition using Dual Energy X-Ray Absorptiometry (DEXA) whole body scan to measure body fat content and bone mineral density/content (reference: Black, A., Tilmont, E. M., Baer, D. J., Rumpler W. V., et. Al. Accuracy and precision of dual-energy X-ray absorptiometry for body composition measurements in rhesus monkeys. Journal of Medical Primatology, 30:94-99, 2001. Six monkeys received vehicle by PO and six monkeys received C127 at 40 mg/kg/day by PO for three weeks; from week 4-6, C127 dose was increased to 80 mg/kg/day. Dosing was ended after 6-weeks treatment, followed by DEXA scan on all animals.

NASH hamster model = assay: Free-choice diet-induced NASH hamster model; format: in vivo; conditions: for NAS score / fibrosis / hepatocyte ballooning: C128 100 mg/kg, elafibranor 15 mg/kg, orally QD for 5 weeks
Description: In a free-choice diet-induced NASH hamster model, hamsters were fed a free choice diet (free choice between a chow diet with normal tap water or a high fat/cholesterol diet (Safe Diets) with 10% fructose enriched tap water) for up to 20 weeks (15 weeks diet and 5 weeks treatment). After 15 weeks of diet, hamsters were randomized into 3 homogenous groups (n=10/group) and were treated with vehicle, compound 128 (C128) at 100 mg/kg, or PPAR dual agonist elafibranor 15 mg/kg orally QD for 5 weeks. […] The study results are illustrated by FIGS. 17 to 19.

[3] = 100 mg/kg orally QD for 5 weeks

Compound: COc1cc2c(cc1OC)[C@H]1[C@@H](C)c3ccc(OC)c(OC)c3CN1CC2 [14R,13S-(+)-CRDL, 14R,13S-(+)-corydaline]
- effects on LDLR mRNA expression (in words) (LDLR mRNA [1]): potent and dose-dependent effects

Compound: COc1cc2c(cc1O)CCN1Cc3c(ccc(OC)c3OC)CC21 (stereo not drawn) [14R-(+)-CRPM, 14R-(+)-corypalmine]
- effects on LDLR mRNA expression (in words) (LDLR mRNA [1]): potent and dose-dependent effects

Compound: COc1cc2c(cc1OC)[C@H]1Cc3ccc(OC)c(OC)c3CN1CC2 [14R-(+)-THP, 14R-(+)-tetrahydropalmatine]
- effects on LDLR mRNA expression (in words) (LDLR mRNA [1]): potent and dose-dependent effects

Compound: COc1cc2c(cc1OC)C1Cc3ccc(OC)c(OS(=O)(=O)c4ccccc4)c3CN1CC2 (stereo not drawn) [Compound 91, 2,3,10-trimethoxy-5,6,7,8,13,13a-hexahydroisoquinolino[2,1-b]isoquinolin-9-yl benzenesulfonate]
- PCSK9 mRNA expression vs concentration (in words) (PCSK9 mRNA; FIG. 15B): inhibits
- LDLR mRNA expression vs concentration (in words) (LDLR mRNA [2]; FIG. 15A): dose-dependently increases

Compound: COc1cc2c(cc1OC)C1Cc3ccc(OC)c(OS(=O)(=O)c4cccc(F)c4)c3CN1CC2 (stereo not drawn) [Compound 127, 2,3,10-trimethoxy-5,6,7,8,13,13a-hexahydroisoquinolino[2,1-b]isoquinolin-9-yl 3-fluorobenzenesulfonate]
- hepatocyte lipid droplet vacuoles, cell and neutrophil infiltration (H&E) (NAFLD hamster model; C127 80 mg/kg): reduced
- hypolipidemic effect (NAFLD hamster model; C127 80 mg/kg): significant hypolipidemic effect
- lipid deposition in the liver (NAFLD hamster model; C127 80 mg/kg): effectively reduced
- Activity on PCSK9 mRNA reduction at 10 uM (fold of control) (PCSK9 mRNA): 0.197 ± 0.014 fold of control
- Activity on PCSK9 mRNA reduction at 40 uM (fold of control) (PCSK9 mRNA): 0.192 ± 0.016 fold of control
- body weight, BMI and body fat (DEXA) (obese Cynomolgus monkeys): reduced
- bone mineral content (DEXA) (obese Cynomolgus monkeys): improved
- liver enzyme ALT (obese Cynomolgus monkeys): significant reduction
- serum LDL-C, TC (obese Cynomolgus monkeys): trend in reducing
- Activity on LDLR mRNA at 10 uM (fold of control) (LDLR mRNA [2]): 1.80 ± 0.13 fold of control
- Activity on LDLR mRNA at 40 uM (fold of control) (LDLR mRNA [2]): 2.38 ± 0.38 fold of control

Compound: COc1ccc2c(c1)CCN1Cc3c(ccc(OC)c3OS(=O)(=O)c3cccc(F)c3)CC21 (stereo not drawn) [Compound 128, 3,10-dimethoxy-5,6,7,8,13,13a-hexahydroisoquinolino[2,1-b]isoquinolin-9-yl 3-fluorobenzenesulfonate]
- lipid droplets in the hepatocytes and cellular inflammation (H&E) (NAFLD hamster model; 20 mg/kg and 40 mg/kg groups): alleviated to varying degrees
- hepatocyte lipid droplet, hepatocyte ballooning and cellular inflammation (H&E) (NAFLD hamster model; 40 mg/kg group): significantly reduced
- circulating cholesterol and triglycerides (serum TC, LDL-C, TG) (NAFLD hamster model; C128 10, 20 and 40 mg/kg): significantly reduced
- diet induced elevations of liver enzymes (ALT, AST, ALP) (NAFLD hamster model; C128 10, 20 and 40 mg/kg): significantly reduced
- fat accumulation in liver tissues (NAFLD hamster model; C128 10, 20 and 40 mg/kg): significantly reduced
- Activity on PCSK9 mRNA reduction at 40 uM (fold of control) (PCSK9 mRNA): 0.86 ± 0.029 fold of control
- Activity on LDLR mRNA at 10 uM (fold of control) (LDLR mRNA [2]): 7.52 ± 0.26 fold of control
- Activity on LDLR mRNA at 40 uM (fold of control) (LDLR mRNA [2]): 13.36 ± 0.46 fold of control
- inflammation score (NASH hamster model; [3]): trend towards lower
- steatosis score (NASH hamster model; [3]): trend towards lower
- NAS score (NASH hamster model): significant reduction
- fibrosis (NASH hamster model): significantly lowered; also recorded: not detected
- hepatocyte ballooning (NASH hamster model): significantly lowered

Compound: COc1ccc2c(c1OS(=O)(=O)c1cccc(F)c1)CN1CCc3cc4c(cc3C1C2)OCCO4 (stereo not drawn) [Compound 129, 11-Methoxy-6,7,8,9,14,14a-hexahydro-2H,3H-1,4-dioxano[5,6-g]isoquinolino[3,2-a]isoquinolin-10-yl 3-fluorobenzenesulfonate]
- Activity on PCSK9 mRNA reduction at 10 uM (fold of control) (PCSK9 mRNA): 1.57 ± 0.07 fold of control
- Activity on PCSK9 mRNA reduction at 40 uM (fold of control) (PCSK9 mRNA): 1.68 ± 0.41 fold of control
- Activity on LDLR mRNA at 10 uM (fold of control) (LDLR mRNA [2]): 2.49 ± 0.18 fold of control
- Activity on LDLR mRNA at 40 uM (fold of control) (LDLR mRNA [2]): 1.99 ± 0.13 fold of control

Compound: COc1ccc2c(c1OS(=O)(=O)c1cccc(F)c1)CN1CCc3cc(C)ccc3C1C2 (stereo not drawn) [Compound 130, 10-Methoxy-3-methyl-5,6,7,8,13,13a-hexahydroisoquinolino[2,1-b]isoquinolin-9-yl 3-fluroobenzenesulfonate]
- Activity on PCSK9 mRNA reduction at 10 uM (fold of control) (PCSK9 mRNA): 2.11 ± 0.11 fold of control
- Activity on LDLR mRNA at 10 uM (fold of control) (LDLR mRNA [2]): 4.29 ± 0.65 fold of control
- Activity on LDLR mRNA at 40 uM (fold of control) (LDLR mRNA [2]): 9.00 ± 1.49 fold of control

Compound: COc1cc2c(cc1OCCO)C1Cc3ccc(OC)c(OS(=O)(=O)c4ccccc4)c3CN1CC2 (stereo not drawn) [Compound 143, 2-(2-hydroxyethoxy)-3,10-dimethoxy-5,6,7,8,13,13a-hexahydroisoquinolino[2,1-b]isoquinolin-9-yl benzenesulfonate]
- Activity on PCSK9 mRNA reduction at 10 uM (fold of control) (PCSK9 mRNA): 1.09 ± 0.09 fold of control
- Activity on LDLR mRNA at 10 uM (fold of control) (LDLR mRNA [2]): 1.87 ± 0.03 fold of control
- Activity on LDLR mRNA at 40 uM (fold of control) (LDLR mRNA [2]): 14.97 ± 1.68 fold of control

Compound: CSc1ccc(C(=O)/C=C/c2cc(C)c(OC(C)(C)C(=O)O)c(C)c2)cc1 [elafibranor, reference compound]
- NAS score (NASH hamster model): significant reduction
- fibrosis (NASH hamster model): reduced fibrosis, although to a lesser degree
- hepatocyte ballooning (NASH hamster model): reduced
